Experiments:
Type in all cases: in vitro ADME
[1] = Predicted hepatic clearance, hepatic microsomes (rat)
Experimental: After a 5 min preincubation, the reaction was initiated by the addition of NADPH (1 mM). At selected time intervals (0, 3, 7, 15, 25, and 45 min), aliquots were taken and subsequently placed into a 96-well plate containing cold acetonitrile with internal standard (50 ng/mL carbamazepine). Plates were then centrifuged at 3000 rcf (4 °C) for 10 min, and the supernatant was transferred to a separate 96-well plate and diluted 1:1 with water for LC/MS/MS analysis. The in vitro half-life ( 1/2, min, Eq. 1), intrinsic clearance (CLint, mL/min/kg, Eq. 2), and subsequent predicted hepatic clearance (CLhep, mL/min/kg, Eq. 3) was determined employing the […]
where k represents the slope from linear regression analysis of the natural log percent remaining of a test compound as a function of incubation time […]
(2) CLint = in vitroT1/2 x mg microsomes x gram liver x kg body wt ascale-up factors: of 20 (human) or 45 (rat) […]
where Qh (hepatic blood flow, mL/min/kg) is 21 (human) or 70 (rat).
LC/MS/MS Bioanalysis of Samples from Plasma Protein Binding and Intrinsic Clearance […]
Samples were analyzed on a Thermo Electron TSQ Quantum Ultra triple quad mass spectrometer (San Jose, CA) via electrospray ionization (ESI) with two Themo Electron Accella pumps (San Jose, CA), and a Leap Technologies CTC PAL autosampler (Carrboro, NC). Analytes were separated by gradient elution on a dual column system with two Thermo Hypersil Gold (2.1 x 30 mm, 1.9 µm) columns (San Jose, CA) thermostated at 40 °C. HPLC mobile phase A was 0.1% formic acid in water and mobile phase B was 0.1% formic acid in acetonitrile. The gradient started […]
for 0.2 min; returned to 10% B in 0.1 min. The total run time was 1.3 min and the HPLC flow rate was 0.8 mL/min. While pump 1 ran the gradient method, pump 2 equilibrated the alternate column isocratically at 10% B. Compound optimization, data collection, and processing was performed using Thermo Electron's QuickQuan software (v2.3) and Xcalibur (v2.0.7 SP1).
In vivo DMPK experimental:
Determination of brain to plasma ratio: […]

[2] = target: CYP 2C9 (Homo sapiens, UniProt P11712); experiment: CYP inhibition 2C9
Sequence of CYP 2C9 (P11712 whole entry): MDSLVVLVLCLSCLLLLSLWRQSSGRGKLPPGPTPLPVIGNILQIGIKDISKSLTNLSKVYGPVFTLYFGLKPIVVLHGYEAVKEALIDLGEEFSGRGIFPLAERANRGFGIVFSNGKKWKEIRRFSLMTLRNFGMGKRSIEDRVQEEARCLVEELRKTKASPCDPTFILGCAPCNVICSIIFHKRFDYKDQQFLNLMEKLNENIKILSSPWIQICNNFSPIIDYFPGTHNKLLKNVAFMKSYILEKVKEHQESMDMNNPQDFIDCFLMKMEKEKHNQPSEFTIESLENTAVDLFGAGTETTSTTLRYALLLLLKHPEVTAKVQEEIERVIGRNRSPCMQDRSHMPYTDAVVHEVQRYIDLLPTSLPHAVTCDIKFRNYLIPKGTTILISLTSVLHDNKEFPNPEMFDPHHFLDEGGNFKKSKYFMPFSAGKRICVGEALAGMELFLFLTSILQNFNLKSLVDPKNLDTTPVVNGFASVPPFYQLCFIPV
Description: Table 1 Pharmacology and In Vitro DMPK Profiles of M1 PAMs 1, 3, and 5 | column: 1; 3; 5

[3] = Hepatocyte metabolite identification (human); settings: human hepatocytes, 4 h incubation
Experimental: Prior to full characterization of deuterated analogues 3 and 5, they were incubated in rat, dog, monkey, and human hepatocytes, along with 1, to determine the amount of parent remaining, as well as the degree of undesired oxidative metabolites 2, 4, and 6 (Figure 2). […] For the gem-dideutero congener 3, metabolic stability was improved in vitro. […] Thus, in hepatocytes in vitro, the kinetic isotope effect engendered greater metabolic stability of the labile hot spot on the lactam. It remained to be seen if this effect would translate in vivo, but we first had to assess the impact of the deuterated analogues on molecular pharmacology, in vitro DMPK, standard low-dose in vivo DMPK and, if warranted, in vivo efficacy in a rat novel object recognition (NOR) behavioral assay.

[4] = Plasma protein binding, equilibrium dialysis (cyno); settings: cynomolgus monkey, pH 7.4, read-out: fu,plasma
Experimental: (§1) page 5: Drug Metabolism Methods: In vitro Plasma protein binding and Brain homogenate binding: Determination of fraction unbound (f u) in plasma was conducted in vitro via equilibrium dialysis using HTDialysis (HTD) membrane plates. The top half of the plate was filled with 100 uL of Dubelco’s Phosphate Buffered Saline, pH 7.4 (DPBS). Compounds were diluted into plasma from each species (5 µM final concentration), which was aliquoted in triplicate to the ‘bottom half’ of the prepared HTD plate wells. The HTD plate was sealed and incubated for 6 hours at 37 °C. Following incubation, each well (both top and bottom halves) were transferred (20 µL) to the corresponding wells of a 96- shallow-well (V-bottom) plate. The daughter plates were then matrix-matched (DPBS side wells received equal volume of plasma, and plasma side wells received equal volume of DPBS), and extraction solution (120 µL; acetonitrile containing 50 nM carbamazepine as IS) was added to all wells of both daughter plates to precipitate protein and extract test article. The plates were then sealed and centrifuged (3500 rcf) for 10 minutes at ambient temperature. Supernatant (60 µL) from each well of the daughter plates was then transferred to the corresponding wells of new daughter plates (96-shallow-well, V bottom) containing water (Milli-Q, 60 µL/well), and the plates were sealed in preparation for LC-MS/MS analysis (see LC-MS/MS analysis method below). The unbound fraction (f u) was calculated following the equation below, and mean values for each species were calculated from 3 replicates. […] Fraction unbound for both plasma and brain samples was determined using Equation 4. f = Concbuffer u Concplasma Equation 4 Determination of fraction unbound in plasma. […]

[5] = Plasma protein binding, equilibrium dialysis (dog); settings: pH 7.4, read-out: fu,plasma
Experimental: as §1

Row | Structure (SMILES) | Predicted CLhep [1] | IC50 [2] | % Total Peak Area, parent remaining [3] | fraction unbound at 6 h, 5 µM [4] | fraction unbound at 6 h, 5 µM [5]
1 | [2H]C1([2H])c2ncccc2C(=O)N1Cc1c(F)cc(-c2cccc3nn(C)cc23)cc1F [compound 3] | 41.3 mL/min/kg | 17.4 µM | 82.6% | 0.039 | 0.082
2 | [2H]C1([2H])c2ncccc2C(=O)N1Cc1c(F)cc(-c2cccc3nn(C([2H])([2H])[2H])cc23)cc1F [compound 5] | 35.9 mL/min/kg | 8.8 µM | 92.3% | 0.044 | 0.119
3 | Cn1cc2c(-c3cc(F)c(CN4Cc5ncccc5C4=O)c(F)c3)cccc2n1 [compound 1] | 5.7 mL/min/kg | > 30 µM | 65.1% | 0.059 | 0.076

Source: PMC12006963, “Application of Deuterium in an M1 Positive Allosteric Modulator Back-Up Program: The Discovery of VU6045422” (ACS Chemical Neuroscience, 2025)
